Compound	melting point [°C]
Cc1cc(Oc2c([N+](=O)[O-])cc([N+](=O)[O-])cc2C(F)(F)F)n[nH]1	145 to 147
CNC(=S)n1nc(Oc2ncc(C(F)(F)F)cc2Cl)cc1C	63 to 65
CCc1c(Oc2ncc(C(F)(F)F)cc2Cl)nn(C(=O)NC)c1C	84 to 86
CCc1cc(Oc2ncc(C(F)(F)F)cc2Cl)nn1C(=O)NC	85 to 87
CNC(=O)n1nc(Oc2c(Cl)cc(C(F)(F)F)cc2Cl)cc1C	113 to 114
CNC(=O)n1nc(Oc2c(F)cc(C(F)(F)F)cc2Cl)cc1C	87 to 88
CCNC(=O)n1nc(Oc2c([N+](=O)[O-])cc([N+](=O)[O-])cc2C(F)(F)F)cc1C	169 to 171
CNC(=O)n1nc(Oc2ccc(C(F)(F)F)cc2[N+](=O)[O-])c(C)c1C	117 to 119
CNC(=O)n1nc(Oc2ccc([N+](=O)[O-])cc2C(F)(F)F)c(C)c1C	113 to 115
CCc1c(Oc2ccc(C(F)(F)F)cc2[N+](=O)[O-])nn(C(=O)NC)c1C	81 to 82
CCc1c(Oc2ccc([N+](=O)[O-])cc2C(F)(F)F)nn(C(=O)NC)c1C	96 to 97
Cc1c(Cl)c(Oc2c(Cl)cc(C(F)(F)F)cc2Cl)nn1C(=O)NCCCl	141 to 143
CCc1cc(Oc2ccc(C(F)(F)F)cc2[N+](=O)[O-])nn1C(=O)NC	89 to 91
CCc1cc(Oc2ccc([N+](=O)[O-])cc2C(F)(F)F)nn1C(=O)NC	97 to 100
CNC(=O)n1nc(Oc2ccc(C(F)(F)F)cc2[N+](=O)[O-])cc1C(F)(F)F	102 to 104
CCNC(=S)n1nc(Oc2c(F)cc(C(F)(F)F)cc2Cl)cc1C	114 to 115
Cc1cc(Oc2ccccc2C(F)(F)F)nn1C(=O)Nc1ccccc1	87 to 89
Cc1cc(Oc2ccc([N+](=O)[O-])c(C)c2)n[nH]1 [Compound 1-4, 5-methyl-3-(4-nitro-3-methylphenyloxy)pyrazole]	114 to 117
CCOc1cc(Oc2cc(C)[nH]n2)ccc1[N+](=O)[O-] [Compound 1-6, 3-(3-ethoxy-4-nitrophenyloxy)-5-methylpyrazole]	123 to 124
Cc1cc(Oc2c(Cl)cc(C(F)(F)F)cc2Cl)n[nH]1 [Compound 1-17, 3-(2,6-dichloro-4-trifluoromethylphenyloxy)-5-methylpyrazole]	153 to 155
Cc1[nH]nc(Oc2c(Cl)cc(C(F)(F)F)cc2Cl)c1Cl [Compound 1-18, 4-chloro-3-(2,6-dichloro-4-trifluoromethylphenyloxy)-5-methylpyrazole]	156 to 158

Compound	melting point [°C]
Cc1cc(Oc2c(F)cc(C(F)(F)F)cc2Cl)n[nH]1 [Compound 1-19, 3-(2-chloro-6-fluoro-4-trifluoromethylphenyloxy)-5-methylpyrazole]	171 to 174
Cc1cc(Oc2c(Cl)cc(C(F)(F)F)cc2[N+](=O)[O-])n[nH]1 [Compound 1-21, 3-(2-chloro-6-nitro-4-trifluoromethylphenyloxy)-5-methylpyrazole]	120 to 123
Cc1cc(Oc2ccc([N+](=O)[O-])c(Cl)c2)n[nH]1 [Compound 1-23, 3-(3-chloro-4-nitrophenyloxy)-5-methylpyrazole]	91 to 93
Cc1cc(Oc2ccc([N+](=O)[O-])c(F)c2)n[nH]1 [Compound 1-26, 3-(3-fluoro-4-nitrophenyloxy)-5-methylpyrazole]	80 to 83
Cc1cc(Oc2ccc(F)cc2[N+](=O)[O-])n[nH]1 [Compound 1-29, 3-(4-fluoro-2-nitrophenyloxy)-5-methylpyrazole]	81 to 84
Cc1cc(Oc2ccc(C#N)cc2C(F)(F)F)n[nH]1 [Compound 1-30, 3-(4-cyano-2-trifluoromethylphenyloxy)-5-methylpyrazole]	123 to 125
Cc1cc(Oc2ccc(N)cc2C(F)(F)F)n[nH]1 [Compound 1-37, 3-(4-amino-2-trifluoromethylphenyloxy)-5-methylpyrazole]	143 to 145
Cc1cc(Oc2ccc([N+](=O)[O-])c(C(F)(F)F)c2)n[nH]1 [Compound 1-42, 5-methyl-3-(4-nitro-3-trifluoromethylphenyloxy)pyrazole]	96 to 98
Cc1cc(Oc2ccc(C(F)(F)F)cc2[N+](=O)[O-])n[nH]1 [Compound 1-44, 5-methyl-3-(2-nitro-4-trifluoromethylphenyloxy)pyrazole]	89 to 91
Cc1cc(Oc2ccc([N+](=O)[O-])cc2)n[nH]1 [Compound 1-47, 5-methyl-3-(4-nitrophenyloxy)pyrazole]	124 to 125
Cc1cc(Oc2ncc(C(F)(F)F)cc2Cl)n[nH]1 [Compound 2-5, 3-(3-chloro-5-trifluoromethylpyridin-2-yloxy)-5-methylpyrazole]	93 to 95
Cc1cc(Oc2ncc(C(F)(F)F)cc2Cl)nn1C(=O)N(C)C [Compound 4-10, N,N-Dimethyl-3-(3-chloro-5-trifluoromethylpyridin-2-yloxy)-5-methylpyrazole-1-carboxamide]	102 to 104
CCNC(=O)n1nc(Oc2ncc(Cl)cc2Cl)cc1C [Compound 4-15, N-ethyl-3-(3,5-dichloropyridin-2-yloxy)-5-methylpyrazole-1-carboxamide]	74 to 76
Cc1cc(Oc2ncc(C(F)(F)F)cc2Cl)nn1C(=O)N(C(C)C)C(C)C [Compound 4-27, N,N-diisopropyl-3-(3-chloro-5-trifluoromethylpyridin-2-yloxy)-5-methylpyrazole-1-carboxamide]	58 to 60
C=CNC(=S)n1nc(Oc2ncc(C(F)(F)F)cc2Cl)cc1C [Compound 4-41, N-vinyl-3-(3-chloro-5-trifluoromethylpyridin-2-yloxy)-5-methylpyrazole-1-carbothioamide]	90 to 92
CCNC(=O)n1nc(Oc2ncc(C(F)(F)F)cc2Cl)c(Cl)c1C [Compound 4-67, N-ethyl-4-chloro-3-(3-chloro-5-trifluoromethylpyridin-2-yloxy)-5-methylpyrazole-1-carboxamide]	111 to 112
CCNC(=O)n1nc(Oc2ncc(C(F)(F)F)cc2Cl)c(Br)c1C [Compound 4-78, N-ethyl-4-bromo-3-(3-chloro-5-trifluoromethylpyridin-2-yloxy)-5-methylpyrazole-1-carboxamide]	123 to 125
Cc1c(Oc2ncc(C(F)(F)F)cc2Cl)nn(C(=O)NC(C)C)c1C [Compound 4-82, N-isopropyl-3-(3-chloro-5-trifluoromethylpyridin-2-yloxy)-4,5-dimethylpyrazole-1-carboxamide]	78 to 80
CCNC(=O)n1nc(Oc2ncc(C(F)(F)F)cc2Cl)c(CC)c1C [Compound 4-85, N-ethyl-3-(3-chloro-5-trifluoromethylpyridin-2-yloxy)-4-ethyl-5-methylpyrazole-1-carboxamide]	101 to 102
CCNC(=O)n1nc(Oc2ncc(C(F)(F)F)cc2Cl)cc1CC [Compound 4-88, N-ethyl-3-(3-chloro-5-trifluoromethylpyridin-2-yloxy)-5-ethylpyrazole-1-carboxamide]	85 to 86
